{
  "source": "paper PMC11344480",
  "about": "(ACS infectious diseases, 2021)",
  "key": {"C. albicans [1]": {"test_system": "C. albicans", "conditions": "prior work of the laboratory; cited from earlier work"}, "NLRP3 inflammasome": {"target": "NLRP3 inflammasome (Homo sapiens, UniProt Q96P20)", "sequence (Q96P20 whole entry)": "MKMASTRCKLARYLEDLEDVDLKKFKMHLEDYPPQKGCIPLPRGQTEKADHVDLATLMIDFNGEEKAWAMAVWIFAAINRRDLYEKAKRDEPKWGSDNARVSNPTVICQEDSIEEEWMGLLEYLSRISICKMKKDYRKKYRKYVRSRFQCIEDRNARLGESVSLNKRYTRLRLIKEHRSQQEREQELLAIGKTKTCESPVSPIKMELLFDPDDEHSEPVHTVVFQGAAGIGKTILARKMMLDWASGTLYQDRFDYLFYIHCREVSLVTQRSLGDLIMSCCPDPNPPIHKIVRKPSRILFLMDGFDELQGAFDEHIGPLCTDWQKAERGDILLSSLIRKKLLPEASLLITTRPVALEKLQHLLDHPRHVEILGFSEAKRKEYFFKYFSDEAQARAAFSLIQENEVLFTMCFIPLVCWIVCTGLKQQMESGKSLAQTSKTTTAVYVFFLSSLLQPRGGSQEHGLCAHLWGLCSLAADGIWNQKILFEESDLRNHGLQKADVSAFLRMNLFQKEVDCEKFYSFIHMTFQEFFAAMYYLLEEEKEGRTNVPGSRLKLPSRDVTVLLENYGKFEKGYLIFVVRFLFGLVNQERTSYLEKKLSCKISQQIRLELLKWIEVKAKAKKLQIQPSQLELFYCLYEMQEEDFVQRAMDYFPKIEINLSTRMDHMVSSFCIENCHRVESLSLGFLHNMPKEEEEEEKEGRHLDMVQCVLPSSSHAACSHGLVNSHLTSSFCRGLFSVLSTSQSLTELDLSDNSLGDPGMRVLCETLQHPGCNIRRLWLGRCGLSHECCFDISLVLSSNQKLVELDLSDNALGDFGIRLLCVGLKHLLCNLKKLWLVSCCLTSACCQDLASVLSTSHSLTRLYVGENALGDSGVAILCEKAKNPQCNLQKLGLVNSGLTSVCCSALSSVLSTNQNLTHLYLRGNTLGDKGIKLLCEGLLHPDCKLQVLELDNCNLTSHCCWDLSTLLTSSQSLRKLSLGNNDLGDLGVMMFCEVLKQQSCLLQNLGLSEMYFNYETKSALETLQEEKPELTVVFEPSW", "assay_type": "cell-based"}, "[2]": {"experiment": "XTT reduction viability assay", "assay_type": "cell-based", "conditions": "human"}, "C. albicans [3]": {"test_system": "C. albicans", "experiment": "Modified MIC50 assay", "assay_type": "cell-based, C. albicans SC5314", "conditions": "24 h"}, "C. auris": {"test_system": "C. auris", "experiment": "Modified MIC50 assay", "assay_type": "cell-based", "conditions": "Candidozyma auris, 24 h"}, "C. dubliniensis": {"test_system": "C. dubliniensis", "experiment": "Modified MIC50 assay", "assay_type": "cell-based, C. dubliniensis CD36", "conditions": "Candida dubliniensis, 24 h"}, "C. tropicalis": {"test_system": "C. tropicalis", "experiment": "Modified MIC50 assay", "assay_type": "cell-based, C. tropicalis MYA3404", "conditions": "Candida tropicalis, 24 h"}, "Candida species": {"test_system": "Candida species", "conditions": "via targeting of AHAS; cited from earlier work"}, "C. albicans AHAS": {"test_system": "C. albicans AHAS", "conditions": "cited from earlier work"}, "C. albicans [4]": {"test_system": "C. albicans", "conditions": "mice, prophylactic administration; cited from earlier work"}},
  "data": [
    {"smiles": "COc1ccc(Cl)cc1C(=O)NCCc1ccc(S(=O)(=O)NC(=O)NC2CCCCC2)cc1", "note": "[glyburide]", "values": [
      {"measurement": "preventing fungal growth or filamentation", "setting": "C. albicans [1]", "value": "completely ineffective"}
    ]},
    {"smiles": "CCOC(=O)c1ccccc1S(=O)(=O)NC(=O)Nc1nc(Cl)cc(OC)n1", "note": "[Compound 13, chlorimuron ethyl]", "values": [
      {"measurement": "IC50", "setting": "NLRP3 inflammasome", "value": "> 50", "unit": "µM"},
      {"measurement": "viability at 5 h, 50 µM", "setting": "[2]", "value": "103 ± 7.3", "unit": "%"},
      {"measurement": "MIC50", "setting": "C. albicans [3]; C. albicans, YNB, mean ± SD", "value": "0.5 ± 0.2", "unit": "µM"},
      {"measurement": "MIC50", "setting": "C. albicans [3]; Candida albicans", "value": 0.5, "unit": "µM"},
      {"measurement": "MIC50", "setting": "C. auris", "value": "0.8 ± 0.3", "unit": "µM"},
      {"measurement": "MIC50", "setting": "C. dubliniensis", "value": "1.3 ± 0.7", "unit": "µM"},
      {"measurement": "MIC50", "setting": "C. tropicalis", "value": "21.1 ± 3", "unit": "µM"},
      {"measurement": "growth of the Candida species", "setting": "Candida species", "value": "effective at reducing growth"},
      {"measurement": "inhibition of purified C. albicans AHAS protein", "setting": "C. albicans AHAS", "value": "potent inhibitors"},
      {"measurement": "fungal burden in the kidney, spleen, liver, and lungs", "setting": "C. albicans [4]", "value": "significantly reduced fungal burden"},
      {"measurement": "protection against disseminated C. albicans infection", "setting": "C. albicans [4]", "value": "provided protection"}
    ]}
  ]
}
